For the assay, the target named is T1, P2X7 receptor (Homo sapiens, UniProt Q99572).
T1 construct: endogenous in cells; host or cells: THP-1 cells differentiated with LPS and IFN-γ
T1 sequence (Q99572 1-595): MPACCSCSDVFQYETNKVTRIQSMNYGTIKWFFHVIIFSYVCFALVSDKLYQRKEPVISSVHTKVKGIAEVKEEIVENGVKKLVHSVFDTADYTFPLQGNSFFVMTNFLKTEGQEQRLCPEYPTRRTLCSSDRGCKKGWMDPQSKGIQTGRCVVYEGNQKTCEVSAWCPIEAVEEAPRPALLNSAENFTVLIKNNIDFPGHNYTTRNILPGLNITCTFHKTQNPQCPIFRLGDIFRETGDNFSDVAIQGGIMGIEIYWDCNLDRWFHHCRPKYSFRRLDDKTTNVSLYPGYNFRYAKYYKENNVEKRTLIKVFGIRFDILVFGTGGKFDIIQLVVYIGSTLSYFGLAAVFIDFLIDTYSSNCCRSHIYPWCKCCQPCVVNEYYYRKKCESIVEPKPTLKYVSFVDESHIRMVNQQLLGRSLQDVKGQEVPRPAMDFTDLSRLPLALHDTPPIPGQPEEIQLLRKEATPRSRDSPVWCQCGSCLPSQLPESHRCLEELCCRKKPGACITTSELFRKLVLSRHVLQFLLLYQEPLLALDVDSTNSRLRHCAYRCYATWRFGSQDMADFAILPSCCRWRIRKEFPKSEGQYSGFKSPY
Briefly: IL-1β release assay in differentiated THP-1 cells stimulated with BzATP (Example 9). Format: cell-based. Particulars: for inhibition at 0.1 µM: 0.1 μM concentration; for inhibition at 0.1 µM / inhibition at 0.3 µM: read-out: IL-1β % Inhib. @ 0.3 or 0.1 μM; for inhibition at 0.3 µM: 0.3 μM concentration; for IC50: four parameter logistic fit. As for the experimental part:
The cells are then pretreated for 30 minutes with the compound of interest at the appropriate concentration in RPMI media containing 100 IU/mL penicillin, 100 ug/mL streptomycin. […] 30 uL of cell supernatant is then collected and IL-1β levels determined via ELISA (R&D systems Cat. # HSLB50) according to manufacturer's recommendations using the Tecan Safire plate reader. Background adjusted IL-1β levels of drug treated and non-treated cells are used to calculate the percent inhibition.
The compounds set forth in Table 1 were tested for activity in a cellular model as described herein. […] Measurements were made and IC50 values, presented in Table 2, below, were determined by fitting the data to a four parameter logistic equation using GraphPad Prism software (GraphPad Software, Inc). The equation may be expressed by the following formula:
Y=Bottom+(Top-Bottom)/(1+10̂((Log EC50−X)*HillSlope))
Where X is the logarithm of concentration, Y is the response and Y starts at Bottom and goes to Top with a sigmoid shape.

The structures appear in SMILES notation. Like-named read-outs stand apart in the source and are kept apart here.

This note sets out measurements from patent US20090298825A1, “Bicycloheteroaryl Compounds as P2x7 Modulators and Uses Thereof” (priority 2006, published 2009).

With `CCOC(=O)N1CCC(n2ccc3c(NC(=O)C4C[C@@H]5CC[C@H]4C5)cccc3c2=O)CC1` (some centres unmarked) [ID 803], the inhibition at 0.1 µM was in the range of 0 to 25%. On the same count and under the same terms, with `CCOC(=O)N1CCC(n2ccc3c(NC(=O)c4cc(C)ccc4C)cccc3c2=O)CC1` [ID 767] the figure was 0 to 25%. A word on the IC50: it is the concentration needed to halve the response being measured. Consider `Cc1cc(-n2ccc3c(NC(=O)C(C)c4ccc(Cl)c(C(F)(F)F)c4)cccc3c2=O)n[nH]1` (centres unmarked) [ID 838], for which the inhibition at 0.3 µM was more than 76%. Besides, the IC50 (read-out: IL-1β IC50) was 14.9 nM. With `CCOC(=O)N1CCC(n2ccc3c(NC(=O)c4ccccc4Cl)cccc3c2=O)CC1` [ID 761], the inhibition at 0.1 µM was in the range of 0 to 25%. On to `CCOC(=O)N1CCC(n2ccc3c(NC(=O)CCc4cccc(C)c4)cccc3c2=O)CC1` [ID 807], for which the inhibition at 0.1 µM is 0 to 25%. On to `CCOC(=O)N1CCC(n2ccc3c(NC(=O)C(C)c4ccccc4)cccc3c2=O)CC1` (centres unmarked) [ID 774], for which the inhibition at 0.1 µM lay in the range of 0 to 25%. The same measure, in the same setting: with `COc1ccc(CC(=O)Nc2cccc3c(=O)n(-c4cc(C)on4)ccc23)cc1` [ID 732] the figure was 0 to 25%.

With `Cc1cc(-n2ccc3c(NC(=O)c4ccc(CC(C)C)cc4)cccc3c2=O)no1` [ID 747], the inhibition at 0.1 µM is 0 to 25%. In the case of `CCOC(=O)N1CCC(n2ccc3c(NC(=O)c4cc(Cl)cc(Cl)c4)cccc3c2=O)CC1` [ID 768], the inhibition at 0.1 µM was in the range of 0 to 25%. For the molecule `O=C(Cc1ccc(Cl)c(Cl)c1)Nc1cccc2c(=O)n(C3CC3)ccc12` [ID 876], the inhibition at 0.3 µM was more than 76%. The IC50 (read-out: IL-1β IC50) turned out to be 15 nM. In the case of `COc1ncccc1-n1ccc2c(NC(=O)CC34CC5CC(CC(C5)C3)C4)cccc2c1=O` [ID 710], the inhibition at 0.3 µM is more than 76%. Further, for the setting “read-out: IL-1β IC50”, the IC50 came out at 0.246 nM. The corresponding values for `CC(C(=O)Nc1cccc2c(=O)n([C@@H]3CCNC3)ccc12)c1ccc(Cl)cc1` (some centres unmarked) [ID 835] are 51 to 75% and 151 nM.

`CCOC(=O)N1CCC(n2ccc3c(NC(=O)Cc4cc(OC)ccc4OC)cccc3c2=O)CC1` [ID 780]: the inhibition at 0.1 µM is 0 to 25%. Turning to `Cc1ncccc1-n1ccc2c(NC(=O)Cc3ccc(F)c(Cl)c3)cccc2c1=O` [ID 857], the inhibition at 0.3 µM was more than 76%. Besides, for the setting “read-out: IL-1β IC50”, the concentration for half-maximal inhibition (IC50) worked out at 75.7 nM. In the same order, the values of `O=C(CC1(O)CCCCCC1)Nc1cccc2c(=O)n([C@H]3CCNC3)ccc12` [ID 849] are 0 to 25% and 403 nM.

For the molecule `COc1ccc(CCC(=O)Nc2cccc3c(=O)n(-c4cc(C)on4)ccc23)cc1` [ID 725], the inhibition at 0.1 µM was 0 to 25%. Same read-out and setting: with `COc1ccc(CC(=O)Nc2cccc3c(=O)n(-c4cc(C)on4)ccc23)c(OC)c1` [ID 739] the figure was 0 to 25%. With `O=C(Cc1ccc(Cl)c(Cl)c1)Nc1cccc2c(=O)n([C@@H]3CCNC3)ccc12` [ID 827], the inhibition at 0.3 µM was more than 76%. Further, the IC50 (read-out: IL-1β IC50) worked out at 25.5 nM. As to `O=C(Cc1ccc(Cl)cc1F)Nc1cccc2c(=O)n(C3CN4CCC3CC4)ccc12` (centres unmarked) [ID 846], the inhibition at 0.3 µM is more than 76%. Besides, the IC50 (read-out: IL-1β IC50) was found to be 162 nM.

Consider `O=C(CC1CCCCCC1)Nc1cccc2c(=O)n(-c3cc[nH]n3)ccc12` [ID 844], for which the inhibition at 0.3 µM is more than 76%. Besides, under “read-out: IL-1β IC50”, the IC50 worked out at 3.33 nM. For `CCOC(=O)N1CCC(n2ccc3c(NC(=O)CCc4cccc(OC)c4)cccc3c2=O)CC1` [ID 753], the inhibition at 0.1 µM was 0 to 25%. In the case of `CCOC(=O)N1CCC(n2ccc3c(NC(=O)c4ccccc4C)cccc3c2=O)CC1` [ID 764], the inhibition at 0.1 µM was in the range of 0 to 25%.

On to `CCOC(=O)N1CCC(n2ccc3c(NC(=O)Cc4cc(C)cc(C)c4)cccc3c2=O)CC1` [ID 802], for which the inhibition at 0.1 µM lay within 0 to 25%. On the same count and under the same terms, next, `COc1cccc(CC(=O)Nc2cccc3c(=O)n(-c4cc(C)on4)ccc23)c1` [ID 730]: 0 to 25%; `CCOC(=O)N1CCC(n2ccc3c(NC(=O)Cc4ccc(OCC)cc4)cccc3c2=O)CC1` [ID 786]: 0 to 25%. On the same count and under the same terms, with `CCOC(=O)N1CCC(n2ccc3c(NC(=O)CCc4ccc(C)cc4C)cccc3c2=O)CC1` [ID 810] the figure was 0 to 25%. For the molecule `COc1ccc(-n2ccc3c(NC(=O)CC45CC6CC(CC(C6)C4)C5)cccc3c2=O)cn1` [ID 705], the inhibition at 0.3 µM was more than 76%. In addition, the IC50 (read-out: IL-1β IC50) was 2.4 nM. In the same order, the values of `O=C(Cc1ccc(Cl)c(C(F)(F)F)c1)Nc1cccc2c(=O)n(-c3cc[nH]n3)ccc12` [ID 842] are more than 76% and 1.24 nM. `CCOC(=O)N1CCC(n2ccc3c(NC(=O)c4ccc(CC(C)C)cc4)cccc3c2=O)CC1` [ID 812]: the inhibition at 0.1 µM lay within 0 to 25%. On the same count and under the same terms, with `Cc1ccc(CCC(=O)Nc2cccc3c(=O)n(-c4cc(C)on4)ccc23)c(C)c1` [ID 745] the figure was 0 to 25%; with `CCOC(=O)N1CCC(n2ccc3c(NC(=O)C45CC6C[C@H](C4)C[C@@](O)(C6)C5)cccc3c2=O)CC1` [ID 796], 0 to 25%. Regarding `O=C(Cc1ccc(Cl)c(F)c1)Nc1cccc2c(=O)n(C3CC3)ccc12` [ID 882], the inhibition at 0.3 µM was more than 76%. Further, the IC50 (read-out: IL-1β IC50) was found to be 6.04 nM. Take `Cc1ncccc1-n1ccc2c(NC(=O)Cc3ccc(F)c(C(F)(F)F)c3)cccc2c1=O` [ID 860]: the inhibition at 0.3 µM was more than 76%. The IC50 (read-out: IL-1β IC50) was determined as 13.9 nM. The corresponding values for `O=C(Cc1cccc(C(F)(F)F)c1F)Nc1cccc2c(=O)n(C3CC3)ccc12` [ID 885] are more than 76% and 0.322 nM. Take `CCOC(=O)N1CCC(n2ccc3c(NC(=O)CCc4ccccc4OC)cccc3c2=O)CC1` [ID 775]: the inhibition at 0.1 µM is 0 to 25%. On the same count and under the same terms, next, `CCOC(=O)N1CCC(n2ccc3c(NC(=O)c4ccc(Cl)cc4Cl)cccc3c2=O)CC1` [ID 762]: 0 to 25%. Turning to `CC(C(=O)Nc1cccc2c(=O)n([C@H]3CCNC3)ccc12)c1ccc(Cl)cc1` (some centres unmarked) [ID 823], the inhibition at 0.3 µM was more than 76%. For the setting “read-out: IL-1β IC50”, the IC50 came to 42.5 nM. Turning to `CCOC(=O)N1CCC(n2ccc3c(NC(=O)Cc4ccccc4F)cccc3c2=O)CC1` [ID 777], the inhibition at 0.1 µM lay in the range of 0 to 25%.

For `O=C(Cc1ccc(Cl)c(C(F)(F)F)c1)Nc1cccc2c(=O)n(-c3cccnc3N3CCOCC3)ccc12` [ID 848], the inhibition at 0.3 µM is more than 76%. Also, the IC50 (read-out: IL-1β IC50) amounted to 44.4 nM. Take `COc1ccc(C(=O)Nc2cccc3c(=O)n(-c4cc(C)on4)ccc23)cc1C` [ID 744]: the inhibition at 0.1 µM is 0 to 25%.

On to `O=C(Cc1ccc(Cl)c(Cl)c1)Nc1cccc2c(=O)n(C3CCNCC3)ccc12` [ID 816], for which the inhibition at 0.3 µM lay in the range of 26 to 50%. Further, the IC50 (read-out: IL-1β IC50) was determined as 305 nM. On to `O=C(Cc1ccc(Cl)cc1F)Nc1cccc2c(=O)n(C3CCC3)ccc12` [ID 888], for which the inhibition at 0.3 µM is more than 76%. The IC50 (read-out: IL-1β IC50) is 14.4 nM.

On to `CCOC(=O)N1CCC(n2ccc3c(NC(=O)Cc4ccccc4C)cccc3c2=O)CC1` [ID 781], for which the inhibition at 0.1 µM was in the range of 0 to 25%.

`Cc1ncccc1-n1ccc2c(NC(=O)Cc3cccc(C(F)(F)F)c3F)cccc2c1=O` [ID 854]: the inhibition at 0.3 µM was more than 76%. The IC50 (read-out: IL-1β IC50) turned out to be 27.1 nM. Take `CCOC(=O)N1CCC(n2ccc3c(NC(=O)CCCc4ccccc4)cccc3c2=O)CC1` [ID 788]: the inhibition at 0.1 µM was in the range of 0 to 25%. For `O=C(CC12CC3CC(CC(C3)C1)C2)Nc1cccc2c(=O)n(C3CN4CCC3CC4)ccc12` (centres unmarked) [ID 850], the inhibition at 0.3 µM is more than 76%. This molecule also returned an IC50 (IL-1β IC50 (nM)) of 1.88 nM. Regarding `CCOC(=O)N1CCC(n2ccc3c(NC(=O)c4cc(C)c(OC)c(C)c4)cccc3c2=O)CC1` [ID 792], the inhibition at 0.1 µM lay in the range of 0 to 25%. In the case of `CC(C(=O)Nc1cccc2c(=O)n(C3CCNCC3)ccc12)c1ccc(Cl)cc1` (centres unmarked) [ID 817], the inhibition at 0.3 µM is 0 to 25%. The IC50 (read-out: IL-1β IC50) was found to be 902 nM. The corresponding values for `O=C(CC1(O)CCCCCC1)Nc1cccc2c(=O)n(C3CCNCC3)ccc12` [ID 813] are 0 to 25% and 760 nM. In the same order, the values of `O=C(Cc1ccc(Cl)c(C(F)(F)F)c1)Nc1cccc2c(=O)n(C3CC3)ccc12` [ID 890] are more than 76% and 4.33 nM.

`CCOC(=O)N1CCC(n2ccc3c(NC(=O)Cc4ccccc4Cl)cccc3c2=O)CC1` [ID 778]: the inhibition at 0.1 µM is 0 to 25%.

In the case of `CCOC(=O)N1CCC(n2ccc3c(NC(=O)c4ccc(-c5ccccc5)cc4)cccc3c2=O)CC1` [ID 772], the inhibition at 0.1 µM lay within 0 to 25%. In the case of `O=C(Cc1ccc(C(F)(F)F)c(F)c1)Nc1cccc2c(=O)n(C3CCC3)ccc12` [ID 892], the inhibition at 0.3 µM was more than 76%. In addition, the IC50 (read-out: IL-1β IC50) came out at 22.1 nM.
